Assay results published in PubChem BioAssay (NCI).
Where “and” joins values, the source holds several entries; their conditions need not be identical. Identical values can stand only once.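 Step 1: Grow cells in 96-well plates. Step 2: Expose to compound for 48 hours at 5 concentrations. Step 3: Interpolate endpoints linearly; if unreached, use highest concentration. GI50 marks 50% less growth. TGI: total growth inhibition.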

Assays:
Experiment in all cases: inhibition of tumour cell growth, NCI panel, 48 h
[1] = system: KM12 colon
[2] = system: HT29 colon
[3] = system: HOP-62 NSCLC
[4] = system: HCT-116 colon
[5] = system: OVCAR-4 ovarian
[6] = system: SK-MEL-28 melanoma
[7] = system: HS 578T breast
[8] = system: OVCAR-5 ovarian
[9] = system: MOLT-4 leukemia
[10] = system: MDA-MB-231 breast
[11] = system: HOP-92 NSCLC
[12] = system: A498 renal

Structure (SMILES) | TGI [1] | TGI [2] | TGI [3] | TGI [4] | TGI [5] | TGI [6] | TGI [7] | TGI [8] | TGI [9] | TGI [10] | TGI [11] | TGI [12] | GI50 [1] | GI50 [8] | GI50 [9] | GI50 [11]
COc1ccccc1/C=C/C1=NN(c2cccc(S(=O)(=O)O)c2)C2(C1)C(Cl)C(=O)N2c1nc2ccccc2s1 (stereo not drawn) | > 100 µM | > 100 µM | > 100 µM | > 100 µM | > 100 µM | > 100 µM | > 100 µM | > 100 µM | > 100 µM | > 100 µM | > 95 µM | > 100 µM | – | – | – | –
CN(CCCNC(=O)c1cn(C)c2c1Cc1ccccc1-2)CCCNC(=O)c1cn(C)c2c1Cc1ccccc1-2 | 26.9 µM | 5.7 µM | 29.2 µM | 22.2 µM | 26.8 µM | 24 µM | 25.2 µM | 29.9 µM | 16.4 µM | 27.4 µM | 7.89 µM | 26.8 µM | – | – | – | –
COc1ccc(COC(=O)NCC(=O)NC(C)C(=O)NC(Cc2ccccc2)C(=O)OCc2ccccc2)cc1 (stereo not drawn) | > 100 µM and 46.3 µM | 86.4 µM and 33.1 µM | 54.2 µM and 49.4 µM | > 100 µM | 41.2 µM and 95.1 µM | 39.5 µM and 34.8 µM | 70.3 µM and 63.9 µM | > 100 µM | 55.9 µM and 49.3 µM | 46.2 µM and 68.3 µM | 37.8 µM and > 100 µM | 38.8 µM and > 100 µM | 62.8 µM and 23.9 µM | 36.3 µM and > 100 µM | 8.37 µM and 24.5 µM | 18.2 µM and 40.9 µM
CC(=O)OCC(=O)OC[C@H](OCc1ccccc1)[C@@H]1[C@H](OC(C)=O)C(=O)N1Cc1ccccc1 | > 100 µM | > 100 µM | > 100 µM | > 100 µM | > 100 µM | > 100 µM | > 100 µM | > 100 µM | > 100 µM | > 100 µM | > 100 µM | > 100 µM | – | – | – | –
CC(C)(Cl)C(Br)CCC(Br)(CCl)C(Cl)CBr (stereo not drawn) | > 10 µM | > 10 µM | > 10 µM | – | > 10 µM | > 10 µM | > 10 µM | > 10 µM | > 10 µM | > 10 µM | > 10 µM | > 10 µM | – | – | – | –
Cc1ccc2nc(C(C)C)c(=O)[nH]c2c1 | > 100 µM | > 100 µM | 30.9 µM | > 100 µM | > 100 µM | > 100 µM | > 100 µM | > 100 µM | > 100 µM | > 100 µM | > 100 µM | > 100 µM | – | – | – | –
CN(C)c1c(C2OC(CO)C(O)C2O)c(=O)c1=O (stereo not drawn) | > 100 µM | > 100 µM | > 100 µM | > 100 µM | > 100 µM | > 100 µM | > 100 µM | > 100 µM | > 100 µM | > 100 µM | > 100 µM | > 100 µM | – | – | – | –
Nc1nc(NCCCO)cc(=O)[nH]1 | > 100 µM | > 100 µM | > 100 µM | > 100 µM | > 100 µM | > 100 µM | > 100 µM | > 100 µM | > 100 µM | > 100 µM | > 100 µM | > 100 µM | – | – | – | –
O=C1/C(=C/c2ccccc2[N+](=O)[O-])N=C(c2ccccc2)N1c1nc2ccccc2s1 | 43.5 µM | > 100 µM | 72.2 µM | 38.5 µM | 51 µM | > 100 µM | 62.4 µM | > 100 µM | 34.7 µM | > 100 µM | 52.1 µM | 72.1 µM | – | – | – | –
O=C1NN(Cc2ccccc2)C(=O)N2CCC[C@@H]12 | > 100 µM | > 100 µM | > 100 µM | > 100 µM | > 100 µM | > 100 µM | > 100 µM | > 100 µM | > 100 µM | > 100 µM | > 100 µM | > 100 µM | – | – | – | –
CC(C)C(OC(=O)c1ccc(NCC2=CC(=O)C=CC2=O)cc1)C(C)C | 30.5 µM | 26.3 µM | 48.3 µM | 24.6 µM | 11.4 µM | 15 µM | 16.7 µM | 36.4 µM | 7.12 µM | 31.8 µM | 4.67 µM | 31.9 µM | – | – | – | –
CC(=O)c1ccc2c(c1)CC1(C2)Cc2cc3c(c(C(=O)O)c2C1)CCC3 (stereo not drawn) | > 100 µM | > 100 µM | > 100 µM | > 100 µM | > 100 µM | > 100 µM | > 100 µM | > 100 µM | > 100 µM | > 100 µM | > 100 µM | > 100 µM | – | – | – | –
CN(C)N1C(=O)S/C(=C\c2ccc([N+](=O)[O-])cc2)C1=O | > 100 µM | > 100 µM | > 100 µM | > 100 µM | > 100 µM | > 100 µM | > 100 µM | > 100 µM | > 100 µM | > 100 µM | > 100 µM | > 100 µM | – | – | – | –
CC1=CC[C@@]2(C)CC[C@](O)(C(C)C)C2C(OC(=O)c2ccccc2)C1 (stereo partly drawn) | 40.3 µM | 32.7 µM | 33.7 µM | 31.8 µM | 62.2 µM | 58.4 µM | 47.9 µM | 30.1 µM | 43.5 µM | 37.6 µM | 29.7 µM | 50.8 µM | – | – | – | –
O=C1O[C@H]2[C@H](OC(=O)c3cc(O)c(O)c(O)c3)[C@@H](OC(=O)c3cc(O)c(O)c4c3[C@@H]3C1=CC(=O)C(O)(O)C3(O)O4)[C@H](OC(=O)c1cc(O)c(O)c(O)c1)O[C@@H]2COC(=O)c1cc(O)c(O)c(O)c1 (stereo partly drawn) | 41.1 µM | > 100 µM | > 100 µM | > 100 µM | > 100 µM | > 100 µM | > 100 µM | > 100 µM | > 100 µM | > 100 µM | > 100 µM | > 100 µM | – | – | – | –
